From patent publication US20260226069A1, “GCN2 AND PERK KINASE MODULATORS AND METHODS OF USE THEREOF” (Deciphera Pharmaceuticals, LLC, priority 2023, published 2026)

Tests used:
GCN2 kinase = target: T1, GCN2 kinase (Homo sapiens, UniProt Q9P2K8); experiment: Biochemical assay for GCN2 (TR-FRET kinase activity assay); conditions: 2 nM GCN2, 1 mM ATP, 3-hour incubation
T1 construct: G556E with a; purchased Carna Biosciences
Method: Biochemical assay for GCN2
Activity of GCN2 kinase was determined using a TR-FRET kinase activity assay (e.g., Analytical Biochemistry, 2006, 356, 108-116). Assays were conducted in 384-well plates (13 μL assay volume) using 2 nM GCN2 (Carna Biosciences), 130 nM GFP-EIf2α (Invitrogen), 0.2 mg/mL E. coli tRNA (sigma) and 1 mM ATP in kinase buffer (Invitrogen). Inhibition of GCN2 was measured by adding serial diluted test compound (final assay concentration of 0.5% DMSO) followed by a 3-hour incubation. Tb-peIF2α (pSer52) antibody (Invitrogen) (2 nM final assay concentration) in kinase buffer containing EDTA (final assay concentration of 20 mM) was added. After a 60 min incubation at room temperature, TR-FRET was monitored using an excitation wavelength of 340 nm and emission wavelengths of 490 nm and 520 nm. The emission ratio (520/490) at each compound concentration of was converted to percent inhibition using controls (i.e., reaction with no test compound and reaction with a known inhibitor) and IC50 values were calculated by fitting a four-parameter sigmoidal curve to the data using Prism (GraphPad software).

PERK kinase = target: T2, PERK kinase (Homo sapiens, UniProt Q9NZJ5, A704S); experiment: Biochemical assay for PERK (coupled pyruvate kinase/lactate dehydrogenase assay); conditions: 10 nM PERK, 1 mM ATP, reaction rate 2-3 h time frame, 30° C.
T2 construct: GST (with thrombin site LVPRGS); purchased Beryllium
Method: Biochemical Assay for PERK
Activity of PERK kinase was determined spectroscopically using a coupled pyruvate kinase/lactate dehydrogenase assay that continuously monitors the ATP hydrolysis-dependent oxidation of NADH (Science, 2000, 289, 1938-1942). Assays were conducted in 384-well plates (100 μL final volume) using 10 nM PERK (from Beryllium), 0.25 mg/mL Myelin Basic Protein substrate, 1.5 units pyruvate kinase, 2.1 units lactate dehydrogenase, 1 mM phosphoenol pyruvate, 0.28 mM NADH and 1 mM ATP in assay buffer (100 mM Tris, pH 7.5, 15 mM MgCl2, 0.5 mM DTT, 0.004% (w/v) BSA, and 0.004% Triton X-100). Inhibition of PERK was measured by adding serial diluted test compound (final assay concentration of 1% DMSO). A decrease in absorption at 340 nm was monitored continuously for 6 hours at 30° C. on a multi-mode microplate reader (BioTek). The reaction rate was calculated using the 2-3 h time frame. The reaction rate at each concentration of compound was converted to percent inhibition using controls (i.e., reaction with no test compound and reaction with a known inhibitor) and IC50 values were calculated using software routines in Prism (GraphPad software).

[1] = tested on: ASNase treated CCRF-CEM cells; experiment: CCRF-CEM ASNase cell proliferation assay, phenotypic assay for cellular inhibition of GCN2; type: cell-based; conditions: Homo sapiens, 1 mU/mL ASNase, 72 h, resazurin
Method: CCRF-CEM ASNase Cell Proliferation Assay, a Phenotypic Assay for Cellular Inhibition of GCN2.
CCRF-CEM leukemia cells (catalog #CCL-116) were obtained from the American Type Culture Collect (ATTC, Manassas, VA). Cells were grown in RPMI-1640 medium supplemented with 10% heat-inactivated fetal bovine serum (Invitrogen, Carlsbad, CA) and 1% Penicillin/Streptomycin/L-Glutamine at 37° C., 5% CO2, and 95% humidity. Cells were expanded until reaching one million cells per mL at which time they are subcultured or harvested for assay use. Ten thousand cells per well in 200 μL RPMI-1640 supplemented with 10% heat-inactivated fetal bovine serum and 1% Penicillin/Streptomycin were dispensed into a 96-well black clear bottom plate. A serial dilution of test compound and 1 mU/mL ASNase was added in triplicate and plates were incubated for 72 h at 37° C., 5% CO2, and 95% humidity. At the end of the incubation, 40 μL of a […] solution of resazurin (Sigma, St. Louis, MO) in PBS was added to each well of the plate and plates were incubated for an additional 6 h at 37° C., 5% CO2, and 95% humidity. Plates were read on a Synergy2 or equivalent reader (Biotek, Winooski VT) using an excitation of 540 nm and an emission of 600 nm. Data was analyzed using GraphPad Prism software (GraphPad, San Diego, CA) to calculate IC50 values.

[2] = tested on: ATF4 in Thapsigargin stimulated CCRF-CEM cells; experiment: CCRF-CEM TG ATF4 ELISA, phenotypic assay for cellular inhibition of PERK preactivated by thapsigargin; type: cell-based; conditions: Homo sapiens, 3 h, compound three hours then 1 μM thapsigargin for an additional hour
Method: CCRF-CEM TG ATF4 ELISA, a Phenotypic Assay for Cellular Inhibition of PERK Preactivated by Thapsigargin (TG)
CCRF-CEM leukemia cells (catalog #CCL-116) were obtained from the American Type Culture Collection (ATTC, Manassas, VA). Briefly, cells were grown in RPMI-1640 medium supplemented with 10% heat-inactivated fetal bovine serum (Invitrogen, Carlsbad, CA) and 1% Penicillin/Streptomycin/L-Glutamine at 37° C., 5% CO2, and 95% humidity. Cells were expanded until reaching one million cells per mL at which time they were subcultured or harvested for assay use. One million five hundred thousand cells per well in 1 mL complete growth medium were dispensed into 12-well plates and incubated overnight. A serial dilution of test compound was added and cells were incubated at 37° C., 5% CO2, and 95% for three hours, then 1 μM thapsigargin was added and cells were incubated for an additional hour at 37° C., 5% CO2, and 95%. Cells were lysed then ATF4 levels were measured using an ELISA assay (Proteintech, Rosemont, IL). Absorbance was measured at 450 nm and 544 nM using a Synergy2 or equivalent reader (Biotek, Winooski VT). Data was analyzed using PRISM software (Graphpad, San Diego, CA) to calculate IC50 values.

T2 sequence (Q9NZJ5 with tags, fused parts or gaps A704S): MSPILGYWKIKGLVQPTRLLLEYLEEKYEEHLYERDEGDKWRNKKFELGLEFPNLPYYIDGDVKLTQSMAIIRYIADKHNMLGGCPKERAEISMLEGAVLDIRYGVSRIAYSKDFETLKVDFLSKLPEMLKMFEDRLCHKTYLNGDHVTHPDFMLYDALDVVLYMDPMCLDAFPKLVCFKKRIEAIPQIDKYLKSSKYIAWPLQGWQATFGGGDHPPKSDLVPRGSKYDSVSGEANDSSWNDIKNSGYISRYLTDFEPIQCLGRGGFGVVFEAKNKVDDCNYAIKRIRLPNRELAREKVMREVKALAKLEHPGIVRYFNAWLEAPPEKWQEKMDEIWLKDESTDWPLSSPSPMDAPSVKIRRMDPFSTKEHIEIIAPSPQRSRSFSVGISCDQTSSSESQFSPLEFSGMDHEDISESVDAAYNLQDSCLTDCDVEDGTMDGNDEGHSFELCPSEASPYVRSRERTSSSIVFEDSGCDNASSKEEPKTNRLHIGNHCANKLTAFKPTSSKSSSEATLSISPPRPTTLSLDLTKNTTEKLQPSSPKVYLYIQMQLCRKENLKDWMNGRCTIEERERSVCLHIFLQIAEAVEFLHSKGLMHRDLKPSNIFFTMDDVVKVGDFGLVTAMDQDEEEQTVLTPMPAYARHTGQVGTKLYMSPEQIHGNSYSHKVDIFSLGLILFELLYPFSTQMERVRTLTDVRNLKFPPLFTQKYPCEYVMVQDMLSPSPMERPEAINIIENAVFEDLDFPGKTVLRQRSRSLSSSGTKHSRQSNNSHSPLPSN

Row | SMILES | IC50 (GCN2 kinase) | IC50 (PERK kinase) | IC50 [1] | IC50 [2]
1 | Cn1cc(-c2cccc(NS(=O)(=O)c3ccc(Cl)c(CO)c3F)c2F)c2c(N)ncnc21 [Example 5] | 1 to 10 µM | 0.5 to 1 µM | 1 to 10 µM | 1 to 10 µM
2 | Cn1cc(-c2cccc(NS(=O)(=O)c3cc(CO)c(F)cc3F)c2F)c2c(N)ncnc21 [Example 10] | 1 to 10 µM | 0.1 to 0.5 µM | 1 to 10 µM | 1 to 10 µM
3 | COc1c(CO)cc(Cl)cc1S(=O)(=O)Nc1cccc(-c2nc(C)n3ccnc(N)c23)c1F [Example 11] | 1 to 10 µM | 0.1 to 0.5 µM | 1 to 10 µM | 0.5 to 1 µM
4 | Cc1nc(-c2cccc(NS(=O)(=O)c3cc(F)cc(CO)c3F)c2F)c2c(N)nccn12 [Example 15] | 1 to 10 µM | 0.1 to 0.5 µM | 1 to 10 µM | 1 to 10 µM
5 | Cn1cc(-c2cccc(NS(=O)(=O)c3ccc(F)c(CO)c3Cl)c2F)c2c(N)ncnc21 [Example 24] | 1 to 10 µM | 0.1 to 0.5 µM | 1 to 10 µM | 1 to 10 µM
6 | COc1ncc(Cl)cc1S(=O)(=O)Nc1cc(F)c(F)c(-c2nc(C)n3ccnc(N)c23)c1 [Example 28] | 1 to 10 µM | 0.5 to 1 µM | 1 to 10 µM | 1 to 10 µM
7 | CCC(C)(C)C(=O)OCc1cc(Cl)cc(S(=O)(=O)Nc2cccc(-c3nc(C)n4ccnc(N)c34)c2F)c1Cl [Example 29] | 1 to 10 µM | 1 to 10 µM | 1 to 10 µM | 1 to 10 µM
8 | CC(=O)OCc1cc(Cl)cc(S(=O)(=O)Nc2cccc(-c3nc(C(C)(C)C)n4ccnc(N)c34)c2F)c1Cl [Example 30] | 1 to 10 µM | 0.1 to 0.5 µM | 1 to 10 µM | 1 to 10 µM
9 | Cc1nc(-c2cccc(NS(=O)(=O)c3cc(Cl)cc(COC(=O)C4CC4)c3Cl)c2F)c2c(N)nccn12 [Example 31] | 1 to 10 µM | 1 to 10 µM | 1 to 10 µM | 1 to 10 µM
10 | CCC(=O)OCc1cc(Cl)cc(S(=O)(=O)Nc2cccc(-c3nc(C)n4ccnc(N)c34)c2F)c1Cl [Example 32] |  | 0.5 to 1 µM | 1 to 10 µM | 1 to 10 µM
11 | CCCC(=O)OCc1cc(Cl)cc(S(=O)(=O)Nc2cccc(-c3nc(C)n4ccnc(N)c34)c2F)c1Cl [Example 33] | 1 to 10 µM | 0.5 to 1 µM | 0.1 to 0.5 µM | 0.1 to 0.5 µM
12 | Cn1cc(-c2cccc(NS(=O)(=O)c3ccc(Br)c(C(F)(F)F)c3)c2F)c2c(N)ncnc21 [Example 36] | 1 to 10 µM | 0.1 to 0.5 µM | 1 to 10 µM | 1 to 10 µM
13 | COC(=O)c1cccc(S(=O)(=O)Nc2cccc(-c3cn(C)c4ncnc(N)c34)c2F)c1Cl [Example 39] | 1 to 10 µM | 0.1 to 0.5 µM | 1 to 10 µM | 1 to 10 µM
14 | COCc1cc(Cl)cc(S(=O)(=O)Nc2cccc(-c3nc(C)n4ccnc(N)c34)c2F)c1Cl [Example 48, N-(3-(8-amino-3-methylimidazo[1,5-a]pyrazin-1-yl)-2-fluorophenyl)-2,5-dichloro-3-(methoxymethyl)benzenesulfonamide] | 0.5 to 1 µM | ≤ 0.1 µM | 1 to 10 µM | 1 to 10 µM
15 | Cn1cc(-c2cccc(NS(=O)(=O)c3cc(Cl)cc(CN)c3Cl)c2F)c2c(N)ncnc21 [Example 49] | 1 to 10 µM | 0.1 to 0.5 µM | 1 to 10 µM | 0.5 to 1 µM
16 | CNCc1cc(Cl)cc(S(=O)(=O)Nc2cccc(-c3cn(C)c4ncnc(N)c34)c2F)c1Cl [Example 50] | 1 to 10 µM | 0.5 to 1 µM | 1 to 10 µM | 1 to 10 µM
17 | CO/N=C\c1cc(Cl)cc(S(=O)(=O)Nc2cccc(-c3cn(C)c4ncnc(N)c34)c2F)c1Cl [Example 53] | 1 to 10 µM | ≤ 0.1 µM | 1 to 10 µM | 1 to 10 µM

Next, values leading:

Row | IC50 (GCN2 kinase) | IC50 (PERK kinase) | IC50 [1] | IC50 [2] | SMILES
18 | 1 to 10 µM | ≤ 0.1 µM | 1 to 10 µM | 1 to 10 µM | Cc1c(CO)cc(F)cc1S(=O)(=O)Nc1cccc(-c2nc(C)n3ccnc(N)c23)c1F [Example 6]
19 | 0.5 to 1 µM | ≤ 0.1 µM | 1 to 10 µM | 1 to 10 µM | Cc1nc(-c2cccc(NS(=O)(=O)c3cc(Cl)cc(CO)c3F)c2F)c2c(N)nccn12 [Example 7]
20 | 0.5 to 1 µM | ≤ 0.1 µM | 0.5 to 1 µM | 0.1 to 0.5 µM | Cc1nc(-c2cccc(NS(=O)(=O)c3cc(F)cc(CO)c3Cl)c2F)c2c(N)nccn12 [Example 8]
21 | 0.1 to 0.5 µM | ≤ 0.1 µM | 0.1 to 0.5 µM | 0.1 to 0.5 µM | COCCNc1nc(-c2cccc(NS(=O)(=O)c3cc(Cl)cc(CO)c3Cl)c2F)c2c(N)nccn12 [Example 23]
22 | ≤ 0.1 µM | ≤ 0.1 µM | 0.1 to 0.5 µM | 0.1 to 0.5 µM | CCNc1nc(-c2cccc(NS(=O)(=O)c3cc(Cl)cc(CO)c3Cl)c2F)c2c(N)nccn12 [Example 27]
23 | 0.1 to 0.5 µM | ≤ 0.1 µM | 0.5 to 1 µM | 0.1 to 0.5 µM | COc1cc(F)c(S(=O)(=O)Nc2cccc(-c3cn(C)c4ncnc(N)c34)c2F)cc1Cl [Example 37]
24 | 1 to 10 µM | ≤ 0.1 µM | 1 to 10 µM | 1 to 10 µM | COC(=O)c1cc(Cl)cc(S(=O)(=O)Nc2cccc(-c3cn(C)c4ncnc(N)c34)c2F)c1Cl [Example 40]
25 | 1 to 10 µM | ≤ 0.1 µM | 1 to 10 µM | 0.1 to 0.5 µM | COc1cc(Cl)c(S(=O)(=O)Nc2cccc(-c3cn(C)c4ncnc(N)c34)c2F)cc1Cl [Example 41]
26 | 0.1 to 0.5 µM | ≤ 0.1 µM | 1 to 10 µM | 1 to 10 µM | Cn1cc(-c2cccc(NS(=O)(=O)c3cc(Cl)cc(Br)c3Cl)c2F)c2c(N)ncnc21 [Example 42]
27 | 1 to 10 µM | ≤ 0.1 µM | 1 to 10 µM | 0.5 to 1 µM | COc1ccc(S(=O)(=O)Nc2cccc(-c3cn(C)c4ncnc(N)c34)c2F)cc1Cl [Example 44]
28 | 1 to 10 µM | ≤ 0.1 µM | 1 to 10 µM | 0.1 to 0.5 µM | COc1ncc(Cl)cc1S(=O)(=O)Nc1cccc(-c2cn(C)c3ncnc(N)c23)c1F [Example 45, N-(3-(4-amino-7-methyl-7H-pyrrolo[2,3-d]pyrimidin-5-yl)-2-fluorophenyl)-5-chloro-2-methoxypyridine-3-sulfonamide]
